Measured values published in PubChem BioAssay AID652215 (Vanderbilt Specialized Chemistry Center, 2013).
Calls of active or inactive are those of the source.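 The calls were made as follows: active = activity score of 50 or more, meaning choline uptake cut by at least half versus untreated control; inactive = the rest.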

Target: High affinity choline transporter 1 (Homo sapiens) (UniProt Q9GZV3)
Experiment: choline transporter uptake block, single concentration – cell-based, HEK-293 hCHT LV-AA, [3H]-choline, mechanism study for choline transporter inhibitor project, SAR follow-up (AID 652215)
Details: [3H]-choline uptake, 15 min, at 5 µM, stronger effect = lower value; for activity remaining, high choline: measured here: 10 uM choline uptake

Chain of High affinity choline transporter 1 (Homo sapiens) (Q9GZV3 whole entry, looked up): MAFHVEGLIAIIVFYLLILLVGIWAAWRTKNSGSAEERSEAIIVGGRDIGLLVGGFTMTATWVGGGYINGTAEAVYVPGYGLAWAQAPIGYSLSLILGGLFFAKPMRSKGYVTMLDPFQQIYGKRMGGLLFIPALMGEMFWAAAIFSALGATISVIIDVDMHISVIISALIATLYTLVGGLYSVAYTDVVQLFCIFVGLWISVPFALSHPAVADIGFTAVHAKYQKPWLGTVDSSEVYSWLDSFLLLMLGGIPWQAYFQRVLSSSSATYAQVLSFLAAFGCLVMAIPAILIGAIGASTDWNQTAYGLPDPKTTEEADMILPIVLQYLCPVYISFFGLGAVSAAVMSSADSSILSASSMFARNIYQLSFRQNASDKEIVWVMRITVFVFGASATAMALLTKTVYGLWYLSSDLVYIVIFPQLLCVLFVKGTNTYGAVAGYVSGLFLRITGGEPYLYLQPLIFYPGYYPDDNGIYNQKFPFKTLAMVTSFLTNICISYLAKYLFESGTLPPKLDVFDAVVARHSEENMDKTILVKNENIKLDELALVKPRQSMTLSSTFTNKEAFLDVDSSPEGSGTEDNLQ

SMILES | activity remaining, low choline | activity remaining, high choline [%]
COc1ccc(C(=O)NCc2cc(C(C)C)no2)cc1OCC1CCC1 | 94.9% (inactive) | 92.7
CCc1cc(CNC(=O)c2ccc(OC)c(OCc3ccccn3)c2)on1 | 90.2% (inactive) | 102
COc1ccc(C(=O)NCc2cc(C(C)C)no2)cc1OC(C)C | 89.4% (inactive) | 99.8
CCc1cc(CNC(=O)c2ccc(OC)c(O)c2)on1 | 93.7% (inactive) | 90.1
CCc1cc(CNC(=O)c2ccc(OC)c(OC3CCCC3)c2)on1 | 98% (inactive) | 99.4
COc1ccc(C(=O)N[C@H]2CCCCNC2=O)cc1OC1CCN(C(C)C)CC1 | 13.1% | 73.4
CCOc1cc(C(=O)NCc2cc(CC)no2)ccc1OC | 86.4% (inactive) | 87.1
COc1ccc(C(=O)NCc2cc(C(C)C)no2)cc1OCc1ccccn1 | 87.2% (inactive) | 100
CCc1cc(CNC(=O)c2ccc(OC)c(OCCN3CCCCC3)c2)on1 | 22.7% | 38.2
COc1ccc(C(=O)N[C@H]2CC[C@H](O)CC2)cc1OC1CCN(C(C)C)CC1 | 29.7% | 101
COc1ccc(C(=O)NCc2cc(C(C)C)no2)cc1OCc1cccnc1 | 87.3% (inactive) | 95.5
CCc1cc(CNC(=O)c2ccc(OC)c(OC3CCNCC3)c2)on1 | 62.2% (inactive) | 94.7
COc1ccc(C(=O)NCC2OCCc3ccccc32)cc1OC1CCN(C(C)C)CC1 (configuration not stated) | 71.9% (inactive) | 67.1
COCCOc1cc(C(=O)NCc2cc(C(C)C)no2)ccc1OC | 86.8% (inactive) | 84.5
CCOc1cc(C(=O)NCc2cc(C(C)C)no2)ccc1OC | 93.9% (inactive) | 78.2
CCc1cc(CNC(=O)c2ccc(OC)c(OCCOC)c2)on1 | 89.1% (inactive) | 80.6
CCc1cc(CNC(=O)c2ccc(OC)c(OC(C)CN(C)C)c2)on1 (configuration not stated) | 77.1% (inactive) | 57.9
COc1ccc(C(=O)NCCc2c[nH]c3ccccc23)cc1OC1CCN(C(C)C)CC1 | 15.9% | 58

SMILES | activity remaining, low choline | activity remaining, high choline [%]
CCc1cc(CNC(=O)c2ccc(OC)c(OC3CCCN(C)C3)c2)on1 (configuration not stated) | 56.5% (inactive) | 67.1
CCCCOc1cc(C(=O)NCc2cc(CC)no2)ccc1OC | 92.3% (inactive) | 62.3
COc1ccc(C(=O)NCC2CCOCC2)cc1OC1CCN(C(C)C)CC1 | 80% (inactive) | 74.5
COc1ccc(C(=O)NCc2cc(C(C)C)no2)cc1OCc1ccccc1 | 90.8% (inactive) | 97.2
COc1ccc(C(=O)NCc2cc(C(C)C)no2)cc1OCCCN(C)C | 67.3% (inactive) | 59.6
CCc1cc(CNC(=O)c2ccc(OC)c(OC3CCN(C)CC3)c2)on1 | 7.98% | 56.4
CCc1cc(CNC(=O)c2ccc(OC)c(OCc3ccccc3)c2)on1 | 90% (inactive) | 107
CCc1cc(CNC(=O)c2ccc(OC)c(OCc3cccnc3)c2)on1 | 94.5% (inactive) | 72
CCc1cc(CNC(=O)c2ccc(OC)c(OC(=O)c3ccc(OC)c(O)c3)c2)on1 | 92.3% (inactive) | 88.5
CCCCOc1cc(C(=O)NCc2cc(C(C)C)no2)ccc1OC | 85.6% (inactive) | 88.8
CCc1cc(CNC(=O)c2ccc(OC)c(OCCN3CCOCC3)c2)on1 | 69.2% (inactive) | 78.9
CCc1cc(CNC(=O)c2ccc(OC)c(OCC3CCC3)c2)on1 | 91.1% (inactive) | 70.2
COc1ccc(C(=O)NCc2cc(C(C)C)no2)cc1OCc1ccncc1 | 85.9% (inactive) | 83.8
COc1ccc(C(=O)NCC[C@@H]2C[C@@H]3C=C[C@H]2C3)cc1OC1CCN(C(C)C)CC1 | 9.91% | 66.3
CCc1cc(CNC(=O)c2ccc(OC)c(OCCN3CCCC3)c2)on1 | 59.3% (inactive) | 71.4
COc1ccc(C(=O)NCc2cc(C(C)C)no2)cc1OCC1CCCCC1 | 87.2% (inactive) | 83
COc1ccc(C(=O)NC2CCCCC2)cc1OC1CCN(C(C)C)CC1 | 72.2% (inactive) | 78.8

Results, then the compound that gave them:

activity remaining, low choline | activity remaining, high choline [%] | SMILES
46% | 83.3 | COc1ccc(C(=O)NCc2ccon2)cc1OC1CCN(C(C)C)CC1
57.1% (inactive) | 73.9 | COc1ccc(C(=O)NC(C)c2cn(C)nc2C)cc1OC1CCN(C(C)C)CC1 (configuration not stated)
34.1% | 72.1 | COc1ccc(C(=O)NC(C)c2nccs2)cc1OC1CCN(C(C)C)CC1 (configuration not stated)
92.9% (inactive) | 71 | CCc1cc(CNC(=O)c2ccc(OC)c(OC3CCN(C(C)C)CC3)c2)on1
32.9% | 64.8 | COc1ccc(C(=O)NCc2ccccc2C)cc1OC1CCN(C(C)C)CC1
71.2% (inactive) | 82.8 | COc1ccc(C(=O)NCCc2ccncc2)cc1OC1CCN(C(C)C)CC1
20.4% | 77.5 | COc1ccc(C(=O)NCCCn2cccn2)cc1OC1CCN(C(C)C)CC1
35.3% | 81 | COc1ccc(C(=O)NCc2ccc(Cl)s2)cc1OC1CCN(C(C)C)CC1
41.8% | 97.6 | COc1ccc(C(=O)NCCN2CCOC2=O)cc1OC1CCN(C(C)C)CC1
33.1% | 57 | COc1ccc(C(=O)NCc2cnn(C)c2C)cc1OC1CCN(C(C)C)CC1
36.7% | 88.3 | COc1ccc(C(=O)NCCc2cnn(C)c2)cc1OC1CCN(C(C)C)CC1
80.3% (inactive) | 84.5 | COc1ccc(C(=O)NCCN2CCCCC2=O)cc1OC1CCN(C(C)C)CC1
52.4% (inactive) | 60.8 | COc1ccc(C(=O)NCCCn2ccnc2)cc1OC1CCN(C(C)C)CC1
29.4% | 60.9 | COc1ccc(C(=O)NCc2cccc(C)c2)cc1OC1CCN(C(C)C)CC1
52.7% (inactive) | 83.6 | COc1ccc(CNC(=O)c2ccc(OC)c(OC3CCN(C(C)C)CC3)c2)cc1OC
43.1% | 71.2 | COc1ccc(C(=O)NCC(C)Oc2cccnc2)cc1OC1CCN(C(C)C)CC1 (configuration not stated)
